Results as given in patent US4950602A, “Inhibition of lactate production by pyruvate adducts” (Cornell Research Foundation, Inc., priority 1987, dated 1990).
“Also recorded” adds a separate entry of the source.

Columns and labels:
[1] = system: rat brain lactate dehydrogenase; assay: Inhibition of rat brain lactate dehydrogenase (rat brain homogenate); assay type: biochemical; details: for Relative Activity (%) Rat Brain: rat brain homogenate, 0.24 mM pyruvate, 0.1 mM NADH, pH 7.2, 25° C.
Procedure: (§1) Each of the enzymes was assayed by procedures in which change of absorbance at 340 nm due to NADH was followed essentially as described by Bergmeyer (1974, Methods of Enzymatic Analysis, 2nd Eng. Ed., Verlag Chemie Weinheim Academic Press, N.Y.) with the following exceptions. Phosphofructokinase was assayed according to the method of Lai et al (1984, J. Neurochem., 42:438-446). NAD^+ -linked isocitrate dehydrogenase was assayed as described by Lai and Clark (1976, Biochem. J., 154:423-432). Pyruvate and α-ketoglutarate dehydrogenase complexes were respectively assayed according to the methods of Lai and Sheu (1985, J. Neurochem., 45:1861-1868) and Lai and Cooper (1986) (J. Neurochem, 47:1376-1386).
(§2) The reaction mixture (1 ml) contained 0.24 mM sodium pyruvate, 0.1 mM
(§3) NADH, 100 mM potassium phosphate buffer (pH 7.2) and either purified
(§4) bovine heart lactate dehydrogenase (0.01 U) or rat brain homogenate
(§5) containing ~0.02 U of lactate dehydrogenase activity; 25° C.
(§6) Since APADpyruvate adduct and RAP have a tendency to revert to pyruvate
(§7) they were added to the reaction mixture just prior to addition of enzyme.
(§8) Because the kinetics obtained with tightbinding inhibitors depends on the
(§9) order of addition of substrates and inhibitors the enzyme was always adde
(§10) last. Each value is the average of at least 3 determinations. Each of the […]

[2] = biological target: T1, bovine heart α-ketoglutarate dehydrogenase complex (Bos taurus, UniProt F1N206); assay: Purified bovine heart α-ketoglutarate dehydrogenase complex with RAP; assay type: biochemical; details: 20 μM RAP
T1 construct: purchased Sigma Chemical Company (St. Louis, Mo.); host or cells: bovine heart
T1 sequence (F1N206 36-509, one chain of several): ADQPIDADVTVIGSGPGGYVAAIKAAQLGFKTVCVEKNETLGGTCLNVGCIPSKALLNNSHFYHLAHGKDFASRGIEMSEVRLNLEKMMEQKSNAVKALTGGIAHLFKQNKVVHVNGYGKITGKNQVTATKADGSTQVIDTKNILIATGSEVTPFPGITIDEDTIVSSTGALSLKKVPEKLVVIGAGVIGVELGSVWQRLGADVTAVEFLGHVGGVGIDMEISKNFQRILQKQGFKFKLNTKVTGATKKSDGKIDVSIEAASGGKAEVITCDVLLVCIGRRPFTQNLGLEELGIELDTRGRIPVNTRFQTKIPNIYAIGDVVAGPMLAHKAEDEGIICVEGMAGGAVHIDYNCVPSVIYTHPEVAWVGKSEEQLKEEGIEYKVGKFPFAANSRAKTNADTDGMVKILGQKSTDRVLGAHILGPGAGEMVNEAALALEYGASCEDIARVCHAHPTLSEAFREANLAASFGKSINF
Text: (§11) Enzymes and enzyme assays. Rabbit muscle glyceraldehyde-3-phosphate dehydrogenase (80 U/mg: ammonium sulfate suspension), rabbit muscle glycerol-3-phosphate dehydrogenase (40 U/mg; ammonium sulfate suspension),beef liver glutamate dehydrogenase (120 U/mg: in 50% glycerol), mitochondrial pig heart malate dehydrogenase (1100 U/mg; in 50% glycerol) and yeast hexokinase (140 U/mg; ammonium sulfate suspension) were purchased from Boehringer Mannheim Corp. (Indianapolis). Beef heart lactate dehydrogenase (280 U/mg) was purchased from Worthington Biochemical Corporation (Freehold, N.J.). Porcine heart L-alanine aminotransferase (130 U/mg), rabbit muscle phosphofructokinase (140 U/mg; ammonium sulfate suspension), bovine heart α-ketoglutarate (8 U/mg) and pyruvate (5 U/mg) dehydrogenase complexes, sodium pyruvate, L-methionine-SR-sulfoximine, DL-vinylglycine, NAD^+, NADH and NAD^+ analogues (3-acetylpyridine, thionicotinamide, and 3-pyridinealdehyde adenine dinucleotides) were purchased from Sigma Chemical Company (St. Louis, Mo.).
(§12) Each of the enzymes was assayed by procedures in which change of absorbance at 340 nm due to NADH was followed essentially as described by Bergmeyer (1974, Methods of Enzymatic Analysis, 2nd Eng. Ed., Verlag Chemie Weinheim Academic Press, N.Y.) with the following exceptions. […]

[3] = biological target: T2, mitochondrial malate dehydrogenase (Rattus norvegicus, UniProt P04636); assay: Rat brain mitochondrial malate dehydrogenase with RAP; assay type: biochemical; details: 20 μM RAP
T2 construct: Commercial and rat brain glutamate dehydrogenases and mitochondrial malate dehydrogenases were only slightly; from tissue; host or cells: rat brain
T2 sequence (P04636 25-338): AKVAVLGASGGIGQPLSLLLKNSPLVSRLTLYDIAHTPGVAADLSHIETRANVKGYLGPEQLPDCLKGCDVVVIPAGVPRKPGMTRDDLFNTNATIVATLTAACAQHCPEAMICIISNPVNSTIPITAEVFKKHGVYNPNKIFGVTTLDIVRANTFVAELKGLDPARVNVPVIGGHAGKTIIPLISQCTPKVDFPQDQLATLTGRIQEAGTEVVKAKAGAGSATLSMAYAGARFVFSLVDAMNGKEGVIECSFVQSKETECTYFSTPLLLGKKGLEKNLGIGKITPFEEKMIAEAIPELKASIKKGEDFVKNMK
Procedure: as §1

[4] = system: rats; assay: Effects of RAP in vivo, intravenous administration to rats; parameters: species or system rat; details: 20 μmole/kg
Procedure: Animals. Brain tissue was obtained from young adult male Wistar rats (45-50 days old). In one series of experiments, rats that had previously been fed ad libidum were anesthetized with 4% halothane and a V-3 cannula was inserted in the femoral vein. The animals were immobilized by taping them to a lead brick. After they had recovered sufficiently, they were injected with the RAP solution. After initial observation for any side-reactions, the rats were untaped and their wounds were closed under anesthesia. The rats were then placed back in their cages for further observation.
The animals survived for 3 weeks before being killed.

[5] = biological target: T3, pyruvate dehydrogenase (Rattus norvegicus, UniProt P26284+P49432+Q6P6R2); assay: Rat brain pyruvate dehydrogenase with RAP; assay type: biochemical; details: 20 μM RAP
T3 construct: from tissue; host or cells: rat brain
Procedure: as §1

[6] = system: lactate production from D-glucose in synaptosomes; assay: Lactate production from D-glucose in rat brain synaptosomes; assay type: cell-based
Procedure: FIG. 2 is a graphic presentation of inhibition of lactate production from D-glucose by rat brain postnuclear supernatant fraction and by synaptosoms incubated with RAP. Lactate production was determined for a 20-min incubation at 37° C. Values (expressed as % of the control rate) are mean±SD of 3-6 determinations. The control value was 8.1±0.9 nmol of lactate produced/min/mg protein, *P<0.05, **P<0.03 and ***P<0.005vs. control values.
Postnuclear supernatant fraction (containing the glycolytic enzymes) was prepared from rat brain according to the method of Lai et al (1984, supra). Rat brain synaptosomes were prepared according to the method of Lai et al (1980, Biochem. Pharmacol., 29:141-146). Lactate generated by these preparations in the presence of D-glucose was measured with lactate dehydrogenase as described by Lai et al (1984, supra), except that the concentrations of sodium phosphate buffer and nicotinamide used in the medium were respectively 5 and 20 mM. (In some cases where there was a carry over of appreciable RAP to the assay mix, ten times the recommended amount of lactate dehydrogenase was used and the effectiveness of the enzyme in converting lactate to pyruvate was checked by addition of lactate standards to the cuvette after the initial reaction was over).

[7] = biological target: T4, beef heart lactate dehydrogenase (Bos taurus, UniProt Q5E9B1); assay: Inhibition of beef heart lactate dehydrogenase (NADH absorbance at 340 nm); assay type: biochemical, bovine; details: for Relative Activity (%) Beef Heart: 0.24 mM pyruvate, 0.1 mM NADH, pH 7.2, 25° C.
T4 construct: purchased Worthington Biochemical Corporation (Freehold, N.J.); host or cells: beef heart
T4 sequence (Q5E9B1 whole entry): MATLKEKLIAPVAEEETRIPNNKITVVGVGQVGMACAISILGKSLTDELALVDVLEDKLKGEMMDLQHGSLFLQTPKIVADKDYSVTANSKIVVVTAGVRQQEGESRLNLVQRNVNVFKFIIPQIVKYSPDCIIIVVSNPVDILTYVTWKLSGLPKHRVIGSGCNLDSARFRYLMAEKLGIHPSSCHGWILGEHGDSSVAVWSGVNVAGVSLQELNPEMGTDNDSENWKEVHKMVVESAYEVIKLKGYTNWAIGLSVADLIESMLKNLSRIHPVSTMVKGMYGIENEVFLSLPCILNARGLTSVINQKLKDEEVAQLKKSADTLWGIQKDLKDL
Text: as §11, §1, §2, §3, §4, §5, §6, §7, §8, §9, §10

[8] = biological target: T5, hexokinase (Rattus norvegicus, UniProt P05708); assay: Rat brain hexokinase with RAP; assay type: biochemical; details: 20 μM RAP
T5 construct: following enzymes in rat brain subcellular fractions: α-ketoglutarate, isocitrate and cytosolic malate dehydrogenases, and hexokinase; from tissue; host or cells: rat brain subcellular fractions
T5 sequence (P05708 whole entry): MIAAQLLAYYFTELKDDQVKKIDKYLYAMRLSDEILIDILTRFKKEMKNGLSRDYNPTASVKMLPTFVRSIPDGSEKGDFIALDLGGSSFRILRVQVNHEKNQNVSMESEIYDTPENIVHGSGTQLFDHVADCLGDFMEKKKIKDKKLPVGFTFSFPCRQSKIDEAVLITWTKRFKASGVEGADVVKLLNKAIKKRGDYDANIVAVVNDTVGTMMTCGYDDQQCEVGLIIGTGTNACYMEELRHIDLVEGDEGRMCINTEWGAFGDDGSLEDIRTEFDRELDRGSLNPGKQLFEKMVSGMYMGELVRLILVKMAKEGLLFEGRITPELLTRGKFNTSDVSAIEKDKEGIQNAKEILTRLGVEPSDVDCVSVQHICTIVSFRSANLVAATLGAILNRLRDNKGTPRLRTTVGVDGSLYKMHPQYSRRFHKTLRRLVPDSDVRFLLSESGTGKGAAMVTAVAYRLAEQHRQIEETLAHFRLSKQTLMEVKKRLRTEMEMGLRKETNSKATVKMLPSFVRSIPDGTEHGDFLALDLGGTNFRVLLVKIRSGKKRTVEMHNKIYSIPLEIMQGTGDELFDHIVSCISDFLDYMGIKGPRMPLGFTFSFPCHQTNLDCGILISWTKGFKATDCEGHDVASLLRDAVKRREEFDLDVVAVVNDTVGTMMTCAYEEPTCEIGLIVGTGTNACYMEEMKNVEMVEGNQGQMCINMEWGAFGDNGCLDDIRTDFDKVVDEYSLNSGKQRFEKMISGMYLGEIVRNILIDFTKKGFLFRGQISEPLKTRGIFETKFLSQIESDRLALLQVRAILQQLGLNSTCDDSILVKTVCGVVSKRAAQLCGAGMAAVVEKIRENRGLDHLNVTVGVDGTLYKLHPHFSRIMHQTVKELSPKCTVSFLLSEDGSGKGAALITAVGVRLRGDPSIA
Procedure: as §1

[9] = biological target: T6, bovine heart pyruvate dehydrogenase complex (Bos taurus, UniProt A7MB35+F1N206+P11966); assay: Purified bovine heart pyruvate dehydrogenase complex with RAP; assay type: biochemical; details: 20 μM RAP
T6 construct: overall NADH-forming activity assayed at 340 nm
T6 sequence (A7MB35 30-390): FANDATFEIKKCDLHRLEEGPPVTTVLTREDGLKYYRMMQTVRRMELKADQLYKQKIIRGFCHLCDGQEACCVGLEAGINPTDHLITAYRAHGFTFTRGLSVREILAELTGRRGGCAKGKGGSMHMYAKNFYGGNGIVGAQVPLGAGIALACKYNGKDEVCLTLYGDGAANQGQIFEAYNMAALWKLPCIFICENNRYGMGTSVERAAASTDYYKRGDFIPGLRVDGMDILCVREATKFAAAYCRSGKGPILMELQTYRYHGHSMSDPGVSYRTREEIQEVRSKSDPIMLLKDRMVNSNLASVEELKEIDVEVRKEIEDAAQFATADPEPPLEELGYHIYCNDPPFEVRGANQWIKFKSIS
T6 sequence (P11966 31-359): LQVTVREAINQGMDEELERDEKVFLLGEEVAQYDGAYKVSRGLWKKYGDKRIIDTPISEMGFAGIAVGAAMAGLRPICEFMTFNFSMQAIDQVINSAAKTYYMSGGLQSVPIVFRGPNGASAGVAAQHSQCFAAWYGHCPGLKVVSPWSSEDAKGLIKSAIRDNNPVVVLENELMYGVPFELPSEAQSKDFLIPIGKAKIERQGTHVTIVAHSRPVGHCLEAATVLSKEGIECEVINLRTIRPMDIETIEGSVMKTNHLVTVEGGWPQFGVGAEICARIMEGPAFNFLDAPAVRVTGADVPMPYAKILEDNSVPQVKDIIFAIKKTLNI
T6 sequence (F1N206 36-509): as the sequence (F1N206 36-509, one chain of several) above
T6 sequence (P11180 87-647 partner): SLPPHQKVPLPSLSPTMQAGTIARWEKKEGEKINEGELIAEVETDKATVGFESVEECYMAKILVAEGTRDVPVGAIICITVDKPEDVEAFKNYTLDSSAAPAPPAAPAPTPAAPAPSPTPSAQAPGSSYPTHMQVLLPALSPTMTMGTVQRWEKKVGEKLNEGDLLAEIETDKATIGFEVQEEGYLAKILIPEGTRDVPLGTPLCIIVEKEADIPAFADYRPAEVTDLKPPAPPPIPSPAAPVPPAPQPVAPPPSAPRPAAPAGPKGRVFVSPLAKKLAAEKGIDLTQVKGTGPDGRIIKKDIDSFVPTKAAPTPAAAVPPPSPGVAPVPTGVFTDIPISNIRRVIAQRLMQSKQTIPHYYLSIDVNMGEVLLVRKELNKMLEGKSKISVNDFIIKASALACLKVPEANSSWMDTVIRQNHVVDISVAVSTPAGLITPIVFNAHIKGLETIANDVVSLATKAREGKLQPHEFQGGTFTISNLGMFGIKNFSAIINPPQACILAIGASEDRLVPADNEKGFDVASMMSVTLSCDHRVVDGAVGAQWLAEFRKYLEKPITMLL
T6 sequence (P22439 54-501 partner): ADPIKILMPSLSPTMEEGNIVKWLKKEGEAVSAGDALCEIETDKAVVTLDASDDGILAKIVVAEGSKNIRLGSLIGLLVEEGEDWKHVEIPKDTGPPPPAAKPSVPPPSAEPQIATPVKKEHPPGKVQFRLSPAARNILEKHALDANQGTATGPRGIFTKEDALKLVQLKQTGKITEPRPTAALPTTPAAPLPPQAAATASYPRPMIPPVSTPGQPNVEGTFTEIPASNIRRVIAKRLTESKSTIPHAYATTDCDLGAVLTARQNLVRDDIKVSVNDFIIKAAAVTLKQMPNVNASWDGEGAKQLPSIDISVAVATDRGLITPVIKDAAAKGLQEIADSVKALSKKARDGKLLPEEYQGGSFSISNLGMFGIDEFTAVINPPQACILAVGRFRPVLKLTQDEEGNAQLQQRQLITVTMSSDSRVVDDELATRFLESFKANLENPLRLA
Text: as §11, §12

[10] = biological target: T7, isocitrate dehydrogenase (Rattus norvegicus, UniProt Q99NA5); assay: Rat brain isocitrate dehydrogenase with RAP; assay type: biochemical; details: 20 μM RAP
T7 construct: following enzymes in rat brain subcellular fractions: α-ketoglutarate, isocitrate; from tissue; host or cells: rat brain subcellular fractions
T7 sequence (Q99NA5 28-366): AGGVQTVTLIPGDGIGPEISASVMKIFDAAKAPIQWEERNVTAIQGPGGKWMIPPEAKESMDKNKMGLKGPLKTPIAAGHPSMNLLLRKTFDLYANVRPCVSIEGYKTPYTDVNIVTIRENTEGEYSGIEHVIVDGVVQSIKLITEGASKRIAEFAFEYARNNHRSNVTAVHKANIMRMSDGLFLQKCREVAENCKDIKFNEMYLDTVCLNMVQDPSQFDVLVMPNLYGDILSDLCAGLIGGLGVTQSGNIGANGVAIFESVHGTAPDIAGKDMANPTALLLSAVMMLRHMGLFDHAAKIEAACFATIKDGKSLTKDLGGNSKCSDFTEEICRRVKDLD
T7 sequence (Q68FX0 35-385 partner): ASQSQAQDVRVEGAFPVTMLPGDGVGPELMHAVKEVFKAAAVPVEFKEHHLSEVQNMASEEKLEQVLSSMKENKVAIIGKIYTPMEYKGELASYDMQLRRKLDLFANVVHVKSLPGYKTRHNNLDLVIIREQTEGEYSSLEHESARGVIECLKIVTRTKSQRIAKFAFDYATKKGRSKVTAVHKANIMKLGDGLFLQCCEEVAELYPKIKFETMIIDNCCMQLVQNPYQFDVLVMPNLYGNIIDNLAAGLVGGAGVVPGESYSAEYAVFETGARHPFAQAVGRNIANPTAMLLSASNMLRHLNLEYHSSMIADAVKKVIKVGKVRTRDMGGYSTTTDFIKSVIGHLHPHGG
T7 sequence (P41565 40-393 partner): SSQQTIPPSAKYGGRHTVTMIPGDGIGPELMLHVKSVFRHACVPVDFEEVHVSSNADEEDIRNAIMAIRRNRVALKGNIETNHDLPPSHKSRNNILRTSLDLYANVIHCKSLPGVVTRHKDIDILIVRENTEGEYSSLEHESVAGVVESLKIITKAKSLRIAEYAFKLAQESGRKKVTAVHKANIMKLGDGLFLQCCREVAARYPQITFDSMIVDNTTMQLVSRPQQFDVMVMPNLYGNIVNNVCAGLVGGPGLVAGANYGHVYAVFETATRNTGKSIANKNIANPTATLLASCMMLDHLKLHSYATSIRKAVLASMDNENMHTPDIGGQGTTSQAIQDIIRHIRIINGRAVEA
Procedure: as §1

Compound: Nc1ncnc2c1ncn2[C@@H]1O[C@H](COP(=O)(O)OP(=O)(O)OC[C@H]2O[C@@H](N3C=CC(CC(=O)C(=O)O)C(C=O)=C3)[C@H](O)[C@@H]2O)[C@@H](O)[C@H]1O (some centres unmarked) [RAP, 3(-4-(reduced 3-pyridinealdehyde-adeninedinucleotide))-pyruvate]
- Relative Activity (%) Rat Brain ([1]; additive 42 nM): 80%
- Relative Activity (%) Rat Brain ([1]; additive 84 nM): 56%
- Relative Activity (%) Rat Brain ([1]; additive 132 nM): 43%
- Relative Activity (%) Rat Brain ([1]; additive 180 nM): 30%
- IC50 ([1]; standard reaction of Table 1, read-out: concentration required to inhibit the standard reaction by 50%): ~100 nM
- effect on purified bovine heart α-ketoglutarate dehydrogenase complex [2]: nor did 20 μM RAP inhibit
- effect on rat brain mitochondrial malate dehydrogenase [3]: little or no effect
- inhibition at 20 µM [3]: ≤ 20%
- side effects as judged by gross inspection of behavior [4]: no noticeable untoward effects; also recorded: no side effects were noted
- survival before being killed [4]: 3 weeks
- growth and feeding after injection ([4]; 3 weeks): grew and fed normally
- gross post-mortem examination ([4]; after 3 weeks): no obvious tissue damage
- effect on rat brain pyruvate dehydrogenase [5]: little or no effect
- inhibition of lactate production from glucose in synaptosomes compared with rat brain extracts [6]: less effective
- inhibition of lactate production in synaptosomes ([6]; initial concentrations of 250-500 μM): 15-30%
- Ki ([7]; Ki for the A form, A isomer at the 4 position, taken as half of the mixture, calculated from Table 1 data): 1.3 nM
- Ki ([7]; Ki, calculated from Table 1 data with Km for NADH 2.5 μM, standard equation for a competitive inhibitor): 2.6 nM
- Relative Activity (%) Beef Heart ([7]; additive 42 nM): 79%
- Relative Activity (%) Beef Heart ([7]; additive 84 nM): 58%
- Relative Activity (%) Beef Heart ([7]; additive 132 nM): 40%
- Relative Activity (%) Beef Heart ([7]; additive 180 nM): 29%
- potency as inhibitor of lactate dehydrogenase relative to the NAD-pyruvate adduct ([7]; from Table 1): ~ 1000 fold
- type of inhibition with respect to pyruvate ([7]; suggested by the 2.4 mM pyruvate finding): noncompetitive inhibitor with respect to pyruvate
- effect on rat brain hexokinase [8]: similarly unaffected; also recorded: did not inhibit
- effect on purified bovine heart pyruvate dehydrogenase complex [9]: nor did 20 μM RAP inhibit
- effect on rat brain isocitrate dehydrogenase [10]: little or no effect; also recorded: did not inhibit
